From patent US12281084B2, “Acetyl-CoA synthetase 2 (ACSS2) inhibitors and methods using same” (The Wistar Institute, priority 2019, dated 2025)

Experiments:
MDA-MB-468 cells = experiment: 13C2-acetate tracing in MDA-MB-468 cells; type: cell-based, human; details: MDA-MB-468 cells (FIG. 11D)
Description: All metabolomic experiments were performed in serum-like modified Eagle's medium (SMEM). SMEM contains 54 different nutrients that are found in the bloodstream at concentrations that are physiologically relevant to humans. SMEM was supplemented with 10% or 1% fetal bovine serum (FBS; Life Technologies). Cells were grown in normoxia (atmospheric oxygen) or hypoxia (1% oxygen) while being incubated in uniformly labeled ^13C2-acetate (0.100 mM; Cambridge Isotope Laboratories). Lengths of incubation are described in the figure legends. For extraction of metabolites from cultured cells, SMEM medium was aspirated and cells were washed once in ice-cold PBS. Metabolites were extracted by adding a solution of LC-MS grade methanol/acetonitrile/water (5:3:2) to the well. […]
LC-MS analysis was performed on a Q Exactive Hybrid Quadrupole-Orbitrap HF-X MS (ThermoFisher Scientific) equipped with a HESI II probe and coupled to a Vanquish Horizon UHPLC system (ThermoFisher Scientific). […] Samples were analyzed in full MS scan with polarity switching at scan range 65 to 975 m/z; 120,000 resolution; automated gain control (AGC) target of 1E6; and maximum injection time (max IT) of 100 milliseconds. Identification and quantitation of metabolites was performed using an annotated compound library and TraceFinder 4.1 software. […]

recombinant human ACSS2 = molecular target: T1, recombinant human ACSS2 (Homo sapiens, UniProt Q9NR19); experiment: ACSS2 biochemical assay (Transcreener AMP assay); details: in vitro biochemical TranScreener assay; mean±S.D., n≥3 (FIG. 1C)
T1 construct: purchased Origene TP304260
T1 sequence (Q9NR19 whole entry): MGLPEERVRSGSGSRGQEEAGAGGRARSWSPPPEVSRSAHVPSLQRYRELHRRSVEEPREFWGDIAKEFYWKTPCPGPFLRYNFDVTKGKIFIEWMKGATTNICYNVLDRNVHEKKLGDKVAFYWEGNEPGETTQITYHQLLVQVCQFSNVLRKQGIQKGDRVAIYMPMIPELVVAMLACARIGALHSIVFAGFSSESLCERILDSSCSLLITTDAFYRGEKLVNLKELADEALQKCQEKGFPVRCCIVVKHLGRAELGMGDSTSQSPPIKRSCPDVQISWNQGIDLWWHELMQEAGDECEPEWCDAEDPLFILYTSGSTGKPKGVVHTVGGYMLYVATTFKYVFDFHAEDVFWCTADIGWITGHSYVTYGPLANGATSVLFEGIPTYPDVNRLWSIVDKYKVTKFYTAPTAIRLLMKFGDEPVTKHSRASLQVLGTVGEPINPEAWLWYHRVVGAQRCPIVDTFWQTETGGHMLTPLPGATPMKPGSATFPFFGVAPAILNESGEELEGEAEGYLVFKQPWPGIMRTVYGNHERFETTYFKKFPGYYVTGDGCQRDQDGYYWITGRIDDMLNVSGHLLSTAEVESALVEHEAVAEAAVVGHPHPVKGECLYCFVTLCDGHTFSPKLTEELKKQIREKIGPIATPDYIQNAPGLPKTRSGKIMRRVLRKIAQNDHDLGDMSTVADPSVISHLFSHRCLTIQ
Description: ACSS2 enzyme activity was measured using the TRANSCREENER® TRF AMP/GMP assay (Bellbrook Labs). Recombinant ACSS2 was purchased from Origene. The assay was performed in white, opaque, low volume 384 well plates. Test compounds were diluted in 100% DMSO and then 100 nL of each dilution was transferred using the Janus MDT Nanohead to assay plates containing 3 μL ACSS2 (2.5 nM) in assay buffer (30 mM HEPES, pH 7.4, 140 mM NaCl, 2 mM MgCl2, 5 mM sodium acetate, 2 mM DTT, 0.005% Brij35). Three microliters of substrate mix containing 100 μM ATP and 10 μM coenzyme A was added to the plates followed by a 120 min incubation. The final concentrations of enzyme and substrates in the reaction mix was 1.25 nM ACSS2, 50 μM ATP, and 5 μM coenzyme A. After incubation, 3 μL of terbium conjugated AMP antibody and AMP tracer was added to the plates according to the methods described by BellBrook Labs. After an additional 30 min, the HTRF signal was measured using an Envision Plate reader. Data were normalized to % inhibition, where 100% inhibition is equal to the counts obtained in the absence of ACSS2, and 0% inhibition is equal to the counts obtained in the complete reaction including a DMSO control.
A robust biochemical screening assay was set up for testing compounds as potential ACSS2 inhibitors. […]

IC50 (recombinant human ACSS2): 44 ± 3.85 nM
SMILES: CCn1c(C(O)(c2ccccc2)c2ccccc2)nc2ccc(C(=O)NC[C@@H](C)O)cc21 [VY-3-135, (R)-1-ethyl-2-(hydroxydiphenylmethyl)-N-(2-hydroxypropyl)-1H-benzo[d]imidazole-6-carboxamide]
incorporation of 13C2-acetate into UDP-GlcNAc (MDA-MB-468 cells): able to block incorporation of ^13C2-acetate into UDP-GlcNAc to nearly the levels of unlabeled cells
